Test [1] concerns F11 cells (rat dorsal root ganglion neuron cell line). The experiment in a line: Effect of decreasing intracellular actin filaments in F11 cells with oxaliplatin-induced axonal injury (phalloidin staining). In kind it is cell-based. Particulars: 5 days; for inhibition at 10 µM: F-11 rat/mouse fusion cell line, F11, 120 h, compound 10 μM with oxaliplatin 15 μM, compared to oxaliplatin alone treated group, average of five samples, read-out: Decreasing Rate of Intracellular Actin Filament (%). From the text:
The effect of the cyclic amine derivative (I) or a pharmacologically acceptable salt thereof on the amount of intracellular actin filaments in F11 cells (rat dorsal root ganglion neuron cell line) was examined.
As test compounds, the compounds of Examples 1, 2, 3, 4, 5, 6, 7, 8, and 9 were used.
As compounds of comparative examples, 1-(4-(dimethylamino)piperidin-1-yl)-3-(1-ethyl-1H-imidazol-2-yl)-3-hydroxypropan-1-one (hereinafter, the compound of Comparative Example 1), 1-(4-(dimethylamino)piperidin-1-yl)-3-hydroxy-3-(1-(2,2,2-trifluoroethyl)-1H-imidazol-2-yl)propan-1-one (hereinafter, the compound of Comparative Example 2), 1-((R)-3-(dimethylamino)pyrrolidin-1-yl)-3-hydroxy-3-(1-methyl-1H-imidazol-2-yl)propan-1-one (hereinafter, the compound of Comparative Example 3), and 1-((R)-[…]-3-hydroxy-3-(1-methyl-1H-imidazol-2-yl)propan-1-one (hereinafter, the compound of Comparative Example 4) shown in Table 4 were used. The compounds of Comparative Examples 1, 2, 3, and 4 were synthesized in accordance with methods described in International Publication No. WO2016/136944.
For peeling the F11 cells off from a culture flask, 0.25% Trypsin/EDTA (manufactured by Thermo Fisher Scientific K.K.) was added to the cells, followed by incubation at room temperature for several minutes. Thereafter, 10% fetal bovine serum-containing DMEM medium (manufactured by Thermo Fisher Scientific K.K.) was added thereto for suspension, and the resultant centrifuged at 1,500 rpm for 1 minute. After removing the resultant centrifugal supernatant, 0.5% fetal bovine serum-containing DMEM medium was added thereto for suspending cells therein, and the resultant seeded in a poly-D-lysine-coated 96 well plate (manufactured by BD Biosciences) coated with laminin (2 μg/cm^2, manufactured by Sigma Aldrich) to be cultured at 37° C. under an environment of 5% CO2. Two hours after seeding the cells, N,N-dibutyladenosine 3′,5′-phosphate (final concentration 1 mM, manufactured by Sigma Aldrich) and recombinant rat GDNF (final concentration 50 ng/mL, manufactured by PeproTech) were added thereto to culture the cells at 37° C. under an environment of 5% CO2 for 7 days for differentiation.
Seven days after starting the culture, the medium was exchanged with 0.5% fetal bovine serum-containing DMEM medium containing oxaliplatin (final concentration 15 μM), and the resultant cultured for 5 days to induce axonal injury. Each of the compounds of Examples and Comparative Examples was caused to be contained in the medium (final concentration 10 μM) for treatment in the same manner as oxaliplatin.
Five days after treatment with oxaliplatin and each of the compounds, the resultant cells were washed with PBS(−) three times, a 4% paraformaldehyde-phosphate buffer (manufactured by Wako Pure Chemical Industries Ltd.) was added thereto, and the resultant allowed to stand still at room temperature for 10 minutes to fix the cells. Acti-stain 670 phalloidin (manufactured by Cytoskeleton Inc.) was added thereto, and the resultant incubated at room temperature for 30 minutes to stain actin filaments. An image of the cells was acquired using IN Cell Analyzer 2200 (manufactured by GE Healthcare), and the image analyzed using IN Cell Investigator Developer Toolbox. The amount of intracellular actin filaments was indicated by the amount of fluorescence (density) of fluorescent-labeled phalloidin binding to the actin filaments.
In a group treated with oxaliplatin alone (hereinafter, the oxaliplatin alone treated group), the amount of intracellular actin filaments increased by 5% compared to that in a group not treated with oxaliplatin. […] A decreasing rate of intracellular actin filaments, caused by each compound compared to the amount of intracellular actin filaments of the oxaliplatin alone treated group was calculated. […]

Test [2] concerns primary cultured cells of rat dorsal root ganglion. The experiment in a line: Axon (neurite) extension in primary cultured cells of rat dorsal root ganglion with oxaliplatin-induced axonal injury. It is filed as cell-based. To be noted: oxaliplatin alone 3 μM, 7 days; p<0.05. From the text:
The effect of the cyclic amine derivative (I) or a pharmacologically acceptable salt thereof on neurite extension in primary cultured cells of rat dorsal root ganglion was examined.
Male SD rats (manufactured by Charles River Laboratories Japan, Inc.) of 4 to 7 weeks old were used. Each rat was anesthetized by intraperitoneally administering urethane. After confirming that the rat was anesthetized, the rat was rapidly euthanized by exsanguination from the abdominal aorta. After incision of the dorsal part, the spinal column was excised and cooled on ice. The dorsal side of the spinal column was cut off, and the spinal cord was removed from the ventral side of the spinal column to expose the dorsal root ganglia on the ventral side of the spinal column. The dorsal root ganglia (L3 to 6, right and left) were excised with tweezers, and dipped in ice-cold Leibovitz's L-15 medium (manufactured by Thermo Fisher Scientific), and the bundles of nerve fibers were removed under a stereoscopic microscope. The dorsal root ganglia from which the bundles of nerve fibers had been removed were made fine slits with ophthalmic scissors to be used as dorsal root ganglion pieces.
The dorsal root ganglion pieces were dipped in about 3 mL of a solution of collagenase A (manufactured by Roche Molecular Systems, Inc.), followed by incubation at 37° C. for 20 minutes. After the incubation, the resultant was centrifuged at 200×g at 25° C. for 5 minutes to remove a collagenase A solution corresponding to the supernatant. About 1 mL of a solution of trypsin was added thereto, followed by incubation at 37° C. for 5 minutes. Subsequently, about 3 mL of DMEM (manufactured by Thermo Fisher Scientific K.K.) containing 10% fetal bovine serum was added to the resultant, the resultant centrifuged at 200×g at room temperature for 5 minutes, and then the supernatant removed. […]

Turning to `CN(C)C1CCN(C(=O)CC(O)c2nccn2CCC(F)(F)F)CC1` (stereo not shown) [Example 6, 1-(4-(dimethylamino)piperidin-1-yl)-3-(1-(3,3,3-trifluoropropyl)-1H-imidazol-2-yl)-3-hydroxypropan-1-one], in test [1], the inhibition at 10 µM was at least 5%. Same read-out and setting: next, `CN(C)C1CCN(C(=O)CC(O)c2nccn2CC(F)(F)F)CC1` (stereo not shown) [Comparative Example 2, 1-(4-(dimethylamino)piperidin-1-yl)-3-hydroxy-3-(1-(2,2,2-trifluoroethyl)-1H-imidazol-2-yl)propan-1-one, reference compound]: at most 5%; `CC(C)n1ccnc1C(O)CC(=O)N1CCC(N(C)C)CC1` (stereo not shown) [Example 3, 1-(4-(dimethylamino)piperidin-1-yl)-3-(1-isopropyl-1H-imidazol-2-yl)-3-hydroxypropan-1-one]: at least 5%; `CN(C)[C@@H]1CCCN(C(=O)CC(O)c2nccn2C)C1` (stereo partly shown) [Comparative Example 4, reference compound]: at most 5%. Consider `O=C1[O][Pt]2([NH][C@@H]3CCCC[C@H]3[NH]2)[O]C1=O` [oxaliplatin, reference compound], for which the “increase of the amount of intracellular actin filaments compared to a group not treated with oxaliplatin” value in test [1] (oxaliplatin alone 15 μM, p<0.05) came to 5%. For the same molecule, the “length of a neurite compared to the non-treated group” value in test [2] is “significantly reduced”.

Take `Cn1ccnc1C(O)CC(=O)N1CCC(N2CCOCC2)CC1` (stereo not shown) [Example 1, 3-hydroxy-3-(1-methyl-1H-imidazol-2-yl)-1-(4-morpholinopiperidin-1-yl)propan-1-one]: the inhibition at 10 µM in test [1] is at least 5%. As to `COCCn1ccnc1C(O)CC(=O)N1CCC(N(C)C)CC1` (stereo not shown) [Example 5, 1-(4-(dimethylamino)piperidin-1-yl)-3-(1-(2-methoxyethyl)-1H-imidazol-2-yl)-3-hydroxypropan-1-one], the inhibition at 10 µM in test [1] was at least 5%. Same read-out and setting: next, `CN(C)C1CCN(C(=O)CC(O)c2ncc(Cl)n2C)CC1` (stereo not shown) [Example 4, 3-(5-chloro-1-methyl-1H-imidazol-2-yl)-1-(4-(dimethylamino)piperidin-1-yl)-3-hydroxypropan-1-one]: at least 5%. Consider `CN1CCN(C2CCN(C(=O)CC(O)c3nccn3C)CC2)CC1` (stereo not shown) [Example 8, 3-hydroxy-3-(1-methyl-1H-imidazol-2-yl)-1-(4-(4-methylpiperazin-1-yl)piperidin-1-yl)propan-1-one], for which the inhibition at 10 µM in test [1] was at least 5%.

The record behind these values is patent publication US12545668B2, “Cyclic amine derivative as agent for promoting advillin function, and novel cyclic amine derivative and pharmaceutical use thereof” (Toray Industries, Inc., priority 2018, dated 2026).
